Patent publication US12583895B2, “Polypeptides for restoring endothelial function and methods of use thereof” (Vanderbilt University, priority 2019, dated 2026)
Entries after “also recorded” stand apart in the source; their conditions may differ. Non-standard residues stand in square brackets, D forms with d. No end group written: not given here. pS = N[C@@H](COP(=O)(O)O)C(=O)O

Assays:
Assay type in all cases: cell-based
[1] = tested on: rat aorta; assay: Carbachol-induced relaxation of anisomycin-treated rat aorta; conditions: NiPp 500 μM 30 min pretreatment, then anisomycin 200 μM 1 h
Procedure: RA rings were suspended in a muscle bath and incubated with either buffer alone (Ctrl), Aniso (200 μM) for 1 h, or NiPp (500 μM) for 30 min followed by Aniso (200 μM) for 1 h. […] Proteins were extracted […] immunoblotted to examine p38MAPK phosphorylation. Quantification of relative phosphorylation to total p38MAPK level is shown. n=10, *p<0.05 in one-way ANOVA with Tukey post-test. NiPp restores endothelial dysfunction and reduced p38 MAPK phosphorylation induced by anisomycin in RA.
RA rings were suspended in a muscle bath and incubated with either buffer alone (Ctrl), Aniso (200 μM) for 1 h, or NiPp (500 μM) for 30 min followed by Aniso (200 μM) for 1 h. […] The force generated was determined and was adjusted to the weight and length of the tissue. Representative tracings from 1 out of 6 different rats are shown. […] Proteins were extracted and phosphorylation of p38 MAPK was determined by Western blot analysis. […] Data are expressed as mean±SD. […]
This produced the maximal force tension relationship as previously described. […] Contractile responses were defined by stress, calculated using force generated by tissues as follows: stress (×10^5 N/m^2)=force (g)×0.0987/area, where area=wet weight (mg)/at maximal length (mm)]/1.055.
Relaxation was calculated as percent change in stress compared to the maximal PE-induced contraction (set as 100%). […]

[2] = tested on: human saphenous veins (HSV); assay: Endothelial-dependent relaxation of human saphenous veins from CABG patients, muscle bath; conditions: human saphenous vein; for endothelial function (percent relaxation to carbachol) in HSV / relaxation responses normalized to baseline relaxation in HSV: 1 hour; for relaxation responses normalized to baseline relaxation in HSV: mean±SD
Procedure: Human saphenous veins (HSV) were collected from patients undergoing coronary artery bypass grafting procedures and treated with NiPp (500 μM) for 1 hour at room temperature. PE-precontracted tissues were treated with carbachol (CCH; 10^−8 to 10^−5M). Percent relaxation was determined as a change to the maximal PE-induced contraction. Data are reported as mean responses±standard deviation. n=2. Baseline endothelial function in HSV was low.
PE-precontracted tissues were treated with carbachol (CCH; 10^−8 to 10^−5M). Percent relaxation were determined as a change to the maximal PE-induced contraction. Data are reported as mean responses±standard deviation. n=10. […] When normalized to baseline relaxation, NiPp led to 255±321.5% in relaxation responses in HSV.
HSV were suspended in the muscle bath, contracted with PE and treated with carbachol (CCH; 10^−8 to 10^−5 M). The percent relaxation was determined as a change to the maximal PE-induced contraction. Percent relaxation to 5×10^−6 M CCH is shown. n=10; *p<0.05 in paired t-test. […] Data are expressed as mean±SD.
Human saphenous veins (HSV) was obtained under approval from the Institutional Review Board of Vanderbilt University Medical Center from consented patients undergoing coronary artery bypass grafting procedures. HSV segments were collected immediately following surgical harvest and transported to the laboratory in PL for immediate experimentation.
Measurement of endothelial-dependent relaxation. Rings of HSV or RA (1-2 mm) were suspended in a muscle bath containing a bicarbonate buffer (120 mM sodium chloride, 4.7 mM potassium chloride, 1.0 mM magnesium sulfate, 1.0 mM monosodium phosphate, 10 mM glucose, 1.5 mM calcium chloride, and 25 mM sodium bicarbonate, pH 7.4) equilibrated with 95% O2/5% CO2 at 37° C. for 1 h at a resting tension of 1 g, manually stretched to three times the resting tension, and maintained at resting tension for an additional 1 h.
This produced the maximal force tension relationship as previously described. After equilibration, the rings were primed with 110 mM potassium chloride (with equimolar replacement of sodium chloride in bicarbonate buffer) to determine functional viability. Viable rings were then tested for contractile response to a dose of phenylephrine (PE) to yield submaximal contraction (approximately 60-70% of maximum KCl; 5×10^−6 M for HSV and 1-5×10^−7 M for RA) and relaxed with carbachol (CCH, 5×10^−7 M), an acetylcholine analogue, to determine endothelial-dependent relaxation responses. Force measurements were obtained using the Radnoti force transducer (model 159901A, Radnoti LLC, Monrovia, CA) interfaced with a PowerLab data acquisition system and LabChart software (AD Instruments Inc., Colorado Springs, CO). Contractile responses were defined by stress, calculated using force generated by tissues as follows: stress (×10^5 N/m^2)=force (g)×0.0987/area, where area=wet weight (mg)/at maximal length (mm)]/1.055.
Relaxation was calculated as percent change in stress compared to the maximal PE-induced contraction (set as 100%). Each data point was averaged from at least two rings from the same specimen. To determine concurrent signaling events, tissues were frozen in liquid nitrogen at relevant timepoints.
This study illustrates that the NiPp polypeptide (SEQ ID NO:1) restores endothelial function in aged human saphenous veins. […]

[3] = tested on: rat aorta; assay: Endothelial-dependent relaxation of rat aorta after endoplasmic reticulum stress (tunicamycin) injury; conditions: NiPp 100 and 500 μM, 2 hours, room temperature
Procedure: (§1) Freshly isolated rat aorta was treated with tunicamycin (TM) to induce injury in the absence or presence of NiPp (100 and 500 μM) for 2 hours at room temperature. To determine the effect of injury on endothelial function, phenylephrine (PE)-precontracted tissues were treated with carbachol (CCH; 10^−8 to 10^−5M) and the percent relaxation was determined as a change to the maximal PE-induced contraction. Data are reported as mean responses±standard deviation. n=6. *p<0.05, two-way ANOVA.
Muscle bath studies. Tissue rings were suspended in bicarbonate buffer in the muscle bath at 37° C., equilibrated with 95% O2/5% CO2 at 37° C. for 1 hour. Rings were manually stretched to 3 grams of tension, followed by a resting tension of 1 gram for an additional 1 hour to produce a maximal force-tension relationship. […] Relaxation was calculated as percent change in stress compared to the maximal PE-induced contraction (set as 100%).
as §1, with “Data are reported as mean responses±standard deviation. n=6. *p<0.05, two-way ANOVA.” left out

## YARAAARQARASPAARRA(pS)AILPG (YARAAARQARASPAARRA[pS]AILPG) [NiPp, Cell-permeant phosphopeptide mimetic of Niban: transduction domain … conjugated to the region surrounding serine 602 of Niban]
[1]
  endothelial-dependent relaxation (5×10^−7 M CCH) in anisomycin-treated rat aorta: improved; also recorded: prevented; also recorded: restores
[2]; NiPp 100 μM in PL, 2 h, room temperature, n=10
  endothelial-dependent relaxation in HSV (percent relaxation to 5×10^−6 M CCH): improves; also recorded: improvement
[2]; NiPp 100 μM, room temperature, n=10
  endothelial function (percent relaxation to carbachol) in HSV: increased endothelial function
[2]; NiPp 100 μM, n=10
  relaxation responses normalized to baseline relaxation in HSV: 255±321.5%
[2]; NiPp 500 μM, room temperature, n=2
  endothelial function (percent relaxation to carbachol) in HSV: increased endothelial function
[2]; NiPp 500 μM, n=2
  relaxation responses normalized to baseline relaxation in HSV: 183±24%
[3]
  endothelial function (percent relaxation to carbachol) after tunicamycin injury: restored
